Data taken from US20150322033A1, “ANTIBACTERIAL AGENT” (priority 2012, published 2015).
≈ marks a conversion by molar mass, not a printed value.

Columns and labels:
[1] = test system: S. aureus FDA209P (ATCC 6538P); assay: microbe, parasite or virus in culture; type: cell-based, Staphylococcus aureus; settings: Staphylococcus aureus; Example 8, Table 17; read-out: MIC FDA209P
Procedure, shortened: (§1)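 Overnight TSB cultures at 37 °C adjusted to A578 0.3, diluted 500-fold in CAMHB and mixed 1:1 with compound in CAMHB; static overnight incubation at 37 °C. MIC reported in mg/L; Mu50 NR-1 also tested in some runs.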

S. aureus Mu50 = assay: microbe, parasite or virus in culture; type: cell-based, Staphylococcus aureus; settings: Staphylococcus aureus, MU50, read-out: MIC Mu50, Example 8, Table 17
Procedure, shortened: as §1

GyrA(S84L) + GyrB(wt) = target: T1, GyrA(S84L) + GyrB(wt) (Staphylococcus aureus, UniProt P20831, S84L); assay: DNA cleavage assay with mutant GyrA(S84L) and GyrB(wt); type: biochemical; settings: IC50 (μg/mL) GyrA(S84L) + GyrB(wt), Example 9, Table 18
T1 construct: made in house; host or cells: E. coli BL21(DE3)
Source text: (§2) E. coliBL21(DE3) (produced by Invitrogen) was transformed with pMAL-c2-gyrA mentioned above, with pMAL-c2-gyrB mentioned above, or with pMAL-c2-SAGAmut84 containing a mutant gyrA encoding the amino acid sequence of GyrA(wt) in which serine residue at the 84th position from the amino terminus is substituted with a leucine residue (see, Hiramatsu K., Igarashi M., Morimoto Y, Baba T., Umekita M., Akamatsu Y., Int. J. Antimicrob. Agents, 2012 June; 39(6), 478-85). To the culture medium of the resulting transformed Escherichia coli, 1 mM […] (produced by Wako Pure Chemical Industries) was added to induce expression of maltose-binding GyrA(wt), maltose-binding GyrB(wt), or maltose-binding mutant GyrA(S84L), and the bacterium was cultured overnight at 25° C. After completion of the culture, the cells were collected, and suspended in a buffer (20 mM Tris-HCl (pH 8.0), 200 mM sodium chloride, 1 mM ethylenediaminetetraacetic acid (EDTA), 1 mM dithiothreitol (DTT)), a protein extracting reagent (10× BugBuster (registered trademark), produced by Novagen) in a volume of 1/10 of the volume of the buffer, and 2.5 μL/10 mL of the buffer of Benzonase (registered trademark) nuclease (produced by Novagen) were added, the mixture was left standing at 25° C. for 30 minutes, and the cells were disrupted and lysed to obtain a disrupted cell suspension containing the maltose-binding GyrA(wt), maltose-binding GyrB(wt), or maltose-binding mutant GyrA(S84L).
(§3) Then, each disrupted cell suspension mentioned above was added to a column filled with an amylose resin covalently bound with maltose (produced by Novagen). A buffer (20 mM Tris-HCl (pH 8.0), 200 mM sodium chloride, 1 mM EDTA) containing 10 mM maltose was added to the column to elute the maltose-binding GyrA(wt), maltose-binding GyrB(wt), and maltose-binding mutant GyrA(S84L).
(§4) To each eluate, 4 units/1 mL of the eluate of protease (Factor Xa, produced by Amersham) was added, and the mixture was left standing at 25° C. for 3 hours and 30 minutes to cleave the maltose-binding proteins, GyrA(wt), GyrB(wt), and mutant GyrA(S84L) from the maltose-binding GyrA(wt), maltose-binding GyrB(wt), and maltose-binding mutant GyrA(S84L).
(§5) Then, GyrA(wt), GyrB(wt), and mutant GyrA(S84L) were concentrated by using an ultrafiltration unit (YM-50 Filter Unit, produced by Millipore).
(§6) The concentrated GyrA(wt), GyrB(wt), and mutant GyrA(S84L) were each suspended in a buffer (35 mM Tris-HCl (pH 7.5), 24 mM potassium chloride, 6 mM magnesium chloride, 1.8 mM spermidine, 0.36 mg/mL bovine serum albumin, 5 mM DTT, 50 volume % glycerol) at a concentration of 1 μg/μL for GyrA(wt), 2 μg/μL for GyrB(wt), or 1 μg/μL for mutant GyrA(S84L).
An assay was performed in the same manner as that of the cleavage of the plasmid DNA with GyrA(wt) and GyrB(wt) mentioned above, provided that 0.15 μL of an enzyme solution of mutant GyrA(S84L) and 0.2 μL of the enzyme solution of GyrB(wt) were added instead of […] of the enzyme solution of GyrA(wt) and 0.2 μL of the enzyme solution of GyrB(wt). In FIGS. 3 and 4, the symbols “S”, “L”, and “N” have the same meanings as those explained for FIGS. 1 and 2.
IC50 value of levofloxacin or apigenin was also calculated from the visualized images shown in FIGS. 3 and 4 in the same manner as that used for the calculation using the results shown in FIGS. 1 and 2.
The DNA cleavage assay was performed with M-246 in the same manner as that used in Example 4.

GyrA(wt) + GyrB(wt) = target: T2, GyrA(wt) + GyrB(wt) (Staphylococcus aureus, UniProt P20831); assay: DNA cleavage assay with GyrA(wt) and GyrB(wt); type: biochemical; settings: for Ratio of cleaved DNA (%) / Ratio of substrate plasmid DNA (%): Table 18
T2 construct: made in house; host or cells: E. coli BL21(DE3)
Source text: The gene sequence encoding the wild-type GyrA of Staphylococcus aureus (henceforth also referred to as “GyrA(wt)”) shown as SEQ ID NO: 1 was cloned into the plasmid pMAL-c2 (produced by New England Biolabs) (the resultant is henceforth also referred to as “pMAL-c2-gyrA”).
The gene sequence encoding the wild-type GyrB of Staphylococcus aureus (henceforth also referred to as “GyrB(wt)”) shown as SEQ ID NO: 2 was cloned into the plasmid pMAL-c2 (produced by New England Biolabs) (the resultant is henceforth also referred to as “pMAL-c2-gyrB”).
as §2, §3, §4, §5, §6
A substrate plasmid DNA, pTWV228 (0.4 μg, produced by Takara Bio), and levofloxacin (LVFX) or apigenin were added to a buffer (35 mM Tris-HCl (pH 7.5), 24 mM potassium chloride, 6 mM magnesium chloride, 1.8 mM spermidine, 0.36 mg/mL bovine serum albumin, 5 mM DTT), and 0.15 μL of the enzyme solution of GyrA(wt) and […] of the enzyme solution of GyrB(wt) were added to the mixture to prepare a reaction mixture in a total volume of 20
Levofloxacin was added at a final concentration of 0, 0.5, 1, 2, 4, 8, 16, or 32 μg/mL.
The aforementioned reaction solution was left standing at 25° C. for 30 minutes to allow the reaction. […]

`COc1ccc2c(=O)cc(-c3ccc(O)c(OC)c3)oc2c1` [M-246] showed an MIC [1] of 128 µg/mL (≈ 429 µM), an MIC (S. aureus Mu50) of 4 µg/mL (≈ 13.4 µM) and an IC50 (GyrA(S84L) + GyrB(wt)) of 3.35 µM. The “Ratio of cleaved DNA (%)” value (GyrA(wt) + GyrB(wt); 0.5 μg/mL) was 18%, the “Ratio of substrate plasmid DNA (%)” value (GyrA(wt) + GyrB(wt); 0.5 μg/mL) was 82% and the “Ratio of cleaved DNA (%)” value (GyrA(wt) + GyrB(wt); 1 μg/mL) was 23%. For the same compound, the “Ratio of substrate plasmid DNA (%)” value (GyrA(wt) + GyrB(wt); 1 μg/mL) was 77%, the “Ratio of cleaved DNA (%)” value (GyrA(wt) + GyrB(wt); 2 μg/mL) was 29% and the “Ratio of substrate plasmid DNA (%)” value (GyrA(wt) + GyrB(wt); 2 μg/mL) was 71%. The “Ratio of cleaved DNA (%)” value (GyrA(wt) + GyrB(wt); 4 μg/mL) was 40%, the “Ratio of substrate plasmid DNA (%)” value (GyrA(wt) + GyrB(wt); 4 μg/mL) was 60% and the “Ratio of cleaved DNA (%)” value (GyrA(wt) + GyrB(wt); 8 μg/mL) was 47%. The “Ratio of substrate plasmid DNA (%)” value (GyrA(wt) + GyrB(wt); 8 μg/mL) was 53%, the “Ratio of cleaved DNA (%)” value (GyrA(wt) + GyrB(wt); 16 μg/mL) was 56% and the “Ratio of substrate plasmid DNA (%)” value (GyrA(wt) + GyrB(wt); 16 μg/mL) was 44%. The “Ratio of cleaved DNA (%)” value (GyrA(wt) + GyrB(wt); 32 μg/mL) was 67%, the “Ratio of substrate plasmid DNA (%)” value (GyrA(wt) + GyrB(wt); 32 μg/mL) was 33% and the IC50 (GyrA(wt) + GyrB(wt); IC50 (μg/mL) GyrA(wt) + GyrB(wt), Example 9, Table 18) was 53.6 µM.
